Holding throughout (experiment): ≥ marks a high value that may be exact or a test limit, other limits are often not marked, values filed in µg/mL are converted to µM
The test system of one experiment is Escherichia coli.
The subject of experiment [1] is Escherichia coli ATCC 25922.
Another experiment deals with Staphylococcus aureus.
The test system of experiment [2] is Staphylococcus aureus ATCC 25923.
The subject of experiment [3] is Pseudomonas aeruginosa ATCC 27853.

The text below walks through data of DBAASP.

Each structure is given as a SMILES string. ≈ marks a conversion by molar mass, not a printed value. Bounds are passed on as bounds.

The MIC is the lowest concentration that inhibits growth of the organism. Compound `CC[C@H](C)[C@H](NC(=O)[C@H](CCCCN)NC(=O)[C@@H]1CCCN1C(=O)[C@@H](NC(=O)[C@H](CC(C)C)NC(=O)[C@H](C)NC(=O)[C@H](Cc1ccccc1)NC(=O)[C@H](Cc1ccccc1)NC(=O)CN)[C@@H](C)CC)C(=O)N[C@H](C(=O)N[C@@H](CO)C(=O)N[C@@H](CO)C(=O)N1CCC[C@H]1C(=O)N[C@@H](CC(C)C)C(=O)N[C@@H](Cc1ccccc1)C(=O)N[C@@H](CCCCN)C(=O)N[C@H](C(=O)N[C@@H](CC(C)C)C(N)=O)[C@@H](C)O)[C@@H](C)CC` [GFFALIPKIISSPLFKTL] came in with an MIC against Escherichia coli of 17.1 µM (≈ 34 µg/mL). This counts as double-digit micromolar.

The compound `CC[C@H](C)[C@H](NC(=O)CN)C(=O)N[C@@H](CCCCN)C(=O)N[C@@H](CCCCN)C(=O)N[C@@H](Cc1ccccc1)C(=O)N[C@@H](CC(C)C)C(=O)N[C@@H](Cc1cnc[nH]1)C(=O)N[C@H](C(=O)N[C@H](C(=O)N[C@@H](Cc1c[nH]c2ccccc12)C(=O)N[C@@H](CCCCN)C(=O)N[C@@H](Cc1ccccc1)C(=O)N[C@H](C(=O)N[C@@H](CCCCN)C(=O)N[C@@H](C)C(=O)N[C@@H](Cc1ccccc1)C(=O)N[C@H](C(=O)NCC(=O)N[C@@H](CCC(=O)O)C(=O)N[C@H](C(=O)N[C@@H](CCSC)C(=O)N[C@@H](CC(N)=O)C(=O)N[C@@H](CO)C(=O)O)[C@@H](C)CC)C(C)C)[C@@H](C)CC)[C@@H](C)CC)[C@@H](C)CC` [GIKKFLHIIWKFIKAFVGEIMNS] yielded an MIC in experiment [1] of 16 µM (≈ 43.5 µg/mL).

Consider `CC[C@H](C)[C@H](NC(=O)CN)C(=O)N[C@@H](CC(C)C)C(=O)N[C@@H](CO)C(=O)N[C@@H](CO)C(=O)N[C@@H](Cc1ccccc1)C(=O)N[C@@H](CCCCN)C(=O)NCC(=O)N[C@H](C(=O)N[C@@H](C)C(=O)N[C@@H](CCCCN)C(=O)NCC(=O)N[C@H](C(=O)N[C@@H](C)C(=O)N[C@@H](CCCCN)C(=O)N[C@@H](CC(=O)O)C(=O)N[C@@H](CC(C)C)C(=O)N[C@@H](C)C(=O)NCC(=O)N[C@@H](CCCCN)C(=O)N[C@@H](CC(C)C)C(=O)N[C@@H](CC(C)C)C(=O)N[C@@H](CCC(=O)O)C(=O)N[C@H](C(=O)N[C@@H](CC(C)C)C(=O)N[C@@H](CCCCN)C(N)=O)[C@@H](C)O)C(C)C)C(C)C` [GILSSFKGVAKGVAKDLAGKLLETLK], for which the MIC in experiment [1] turned out to be 6.3 µM (≈ 16.7 µg/mL).

On to `CC[C@H](C)[C@H](NC(=O)[C@H](CCCCN)NC(=O)[C@H](CC(C)C)NC(=O)CNC(=O)[C@H](C)NC(=O)[C@H](CCCCN)NC(=O)[C@H](CC(C)C)NC(=O)[C@H](C)NC(=O)[C@H](CCCCN)NC(=O)CNC(=O)[C@H](CC(C)C)NC(=O)[C@H](Cc1ccccc1)NC(=O)[C@H](CO)NC(=O)[C@H](C)NC(=O)[C@H](CC(C)C)NC(=O)CN)C(=O)NCC(=O)N[C@@H](CO)C(=O)N[C@@H](Cc1cnc[nH]1)C(=O)N[C@@H](CC(C)C)C(=O)N[C@@H](CC(C)C)C(=O)NCC(=O)NCC(=O)N[C@@H](C)C(=O)N1CCC[C@H]1C(=O)N[C@@H](CCC(N)=O)C(=O)N[C@@H](CCC(N)=O)C(=O)O` [GLASFLGKALKAGLKIGSHLLGGAPQQ], for which the MIC is 25 µM (≈ 65.8 µg/mL) against Escherichia coli and 6 µM (≈ 15.8 µg/mL) against Staphylococcus aureus.

As to `CC[C@H](C)[C@H](NC(=O)[C@H](C)NC(=O)[C@H](CCCCN)NC(=O)[C@H](CC(C)C)NC(=O)[C@H](CC(C)C)NC(=O)CN)C(=O)N[C@@H](CCCCN)C(=O)N[C@H](C(=O)N[C@@H](CC(C)C)C(=O)N[C@@H](CC(C)C)C(N)=O)[C@@H](C)O` [GLLKAIKTLL], the figures for the MIC in experiment [1] and in experiment [2] were 4.68 µM (≈ 5 µg/mL) and 9.35 µM (≈ 9.99 µg/mL), respectively.

For the compound `CC[C@H](C)[C@H](NC(=O)[C@H](Cc1ccccc1)NC(=O)[C@H](CCCCN)NC(=O)[C@H](CC(C)C)NC(=O)[C@H](CC(C)C)NC(=O)CN)C(=O)N[C@@H](CCCCN)C(=O)N[C@H](C(=O)N[C@@H](CC(C)C)C(=O)N[C@@H](CC(C)C)C(N)=O)[C@@H](C)O` [GLLKFIKTLL], the MIC in experiment [1] and in experiment [2] was 1.75 µM (≈ 2 µg/mL) in each case.

Take `CC[C@H](C)[C@H](NC(=O)[C@H](CCCN=C(N)N)NC(=O)[C@H](CCCCN)NC(=O)[C@H](CC(C)C)NC(=O)[C@H](CC(C)C)NC(=O)CN)C(=O)N[C@@H](CCCCN)C(=O)N[C@@H](Cc1ccccc1)C(=O)N[C@@H](CC(C)C)C(=O)N[C@@H](CC(C)C)C(N)=O` [GLLKRIKFLL]: the MIC in experiment [1] and in experiment [2] was 6.66 µM (≈ 7.99 µg/mL) in each case.

As for `CC[C@H](C)[C@H](NC(=O)[C@H](CCCN=C(N)N)NC(=O)[C@H](CCCCN)NC(=O)[C@H](CC(C)C)NC(=O)[C@H](CC(C)C)NC(=O)CN)C(=O)N[C@@H](CCCCN)C(=O)N[C@H](C(=O)N[C@@H](C)C(=O)N[C@@H](CC(C)C)C(N)=O)[C@@H](C)O` [GLLKRIKTAL], the MIC was 44 µM (≈ 49 µg/mL) in experiment [1] and over 27.9 µM in experiment [2].

On to `CC[C@H](C)[C@H](NC(=O)[C@@H](NC(=O)[C@H](Cc1ccccc1)NC(=O)[C@H](CCCCN)NC(=O)[C@H](C)NC(=O)[C@H](CC(C)C)NC(=O)[C@H](CCCCN)NC(=O)CNC(=O)[C@H](CC(C)C)NC(=O)[C@@H](NC(=O)[C@@H](NC(=O)CNC(=O)[C@H](C)NC(=O)[C@H](C)NC(=O)[C@@H](NC(=O)[C@H](C)NC(=O)[C@H](CCSC)NC(=O)CN)[C@@H](C)O)[C@@H](C)O)[C@@H](C)O)C(C)C)C(=O)NCC(=O)N[C@@H](C)C(=O)N[C@H](C(N)=O)C(C)C` [GMATAAGTTLGKLAKFVIGAV], for which the MIC against Escherichia coli and against Staphylococcus aureus was over 80 µM in each case.

Regarding `CC[C@H](C)[C@H](NC(=O)[C@H](CC(=O)O)NC(=O)[C@@H](NC(=O)[C@@H](NC(=O)CN)C(C)C)C(C)C)C(=O)N[C@@H](CC(C)C)C(=O)N[C@@H](CCCCN)C(=O)NCC(=O)N[C@@H](C)C(=O)N[C@@H](C)C(=O)N[C@@H](CCCCN)C(=O)N[C@@H](CC(=O)O)C(=O)N[C@@H](CC(C)C)C(=O)N[C@@H](C)C(=O)NCC(=O)N[C@@H](Cc1cnc[nH]1)C(=O)N[C@@H](CC(C)C)C(=O)N[C@@H](C)C(=O)N[C@@H](CO)C(=O)N[C@@H](CCCCN)C(=O)N[C@H](C(=O)O)C(C)C` [GVVDILKGAAKDLAGHLASKV], the MIC in experiment [1] is 60.6 µM (≈ 125 µg/mL). This counts as double-digit micromolar.

As for `CC[C@H](C)[C@H](NC(=O)[C@H](Cc1ccc(O)cc1)NC(=O)[C@H](CCC(N)=O)NC(=O)[C@H](CC(C)C)NC(=O)[C@H](C)NC(=O)[C@H](CCCCN)NC(=O)[C@H](CCCCN)NC(=O)[C@H](CCSC)NC(=O)[C@H](CCCCN)NC(=O)[C@@H](N)CCCCN)C(=O)N[C@@H](CCCCN)C(=O)N[C@@H](CC(C)C)C(=O)N[C@@H](CC(C)C)C(=O)N[C@@H](CCCCN)C(=O)N[C@@H](CCC(=O)O)C(N)=O` [KKMKKALQYIKLLKE], the MIC in experiment [1] and in experiment [3] was over 100 µM throughout.

Take `CC(C)C[C@H](NC(=O)[C@H](CO)NC(=O)[C@@H](N)CCCCN)C(=O)N[C@@H](CCCN=C(N)N)C(=O)N[C@@H](CCCN=C(N)N)C(=O)N[C@H](C(=O)N[C@@H](Cc1c[nH]c2ccccc12)C(=O)N[C@@H](CCCN=C(N)N)C(=O)N[C@@H](CO)C(=O)N[C@@H](Cc1c[nH]c2ccccc12)C(=O)N[C@@H](CCCN=C(N)N)C(N)=O)C(C)C` [KSLRRVWRSWR]: the MIC in experiment [1] was determined as 30 µM (≈ 45.9 µg/mL); in experiment [3], 40 µM (≈ 61.2 µg/mL); in experiment [2], 60 µM (≈ 91.7 µg/mL).

`CC[C@H](C)[C@H](NC(=O)CNC(=O)[C@H](CO)NC(=O)[C@H](CCCN=C(N)N)NC(=O)[C@@H](NC(=O)CNC(=O)[C@H](Cc1c[nH]c2ccccc12)NC(=O)[C@H](CC(C)C)NC(=O)[C@H](CC(=O)O)NC(=O)[C@@H](NC(=O)[C@H](CCCCN)NC(=O)[C@H](CC(C)C)NC(=O)[C@@H](N)CCC(N)=O)C(C)C)[C@@H](C)O)C(N)=O` [QLKVDLWGTRSGI]: the MIC in experiment [1], in experiment [3] and in experiment [2] was over 100 µM throughout.

`CSCC[C@H](NC(=O)[C@H](CCCCN)NC(=O)[C@H](CCCCN)NC(=O)[C@H](CCCCN)NC(=O)[C@H](CCCN=C(N)N)NC(=O)[C@H](CCCN=C(N)N)NC(=O)[C@H](Cc1ccc(O)cc1)NC(=O)[C@@H](N)CCCN=C(N)N)C(=O)N[C@@H](CCCCN)C(=O)N[C@@H](CCCCN)C(=O)N[C@@H](C)C(N)=O` [RYRRKKKMKKA]: the MIC in experiment [1] and in experiment [3] was over 100 µM throughout.

`NCCCC[C@H](NC(=O)[C@H](CCCCN)NC(=O)[C@H](CCCCN)NC(=O)[C@H](CCCN=C(N)N)NC(=O)[C@H](CCCN=C(N)N)NC(=O)[C@H](Cc1ccc(O)cc1)NC(=O)[C@@H](N)CCCN=C(N)N)C(N)=O` [RYRRKKK]: the MIC in experiment [1] and in experiment [3] was over 100 µM each time.

Consider `CC(C)C[C@H](NC(=O)[C@H](CCCCN)NC(=O)CNC(=O)[C@@H](N)CO)C(=O)N[C@@H](CS)C(=O)N[C@@H](CS)C(=O)N[C@@H](CCCN=C(N)N)C(=O)N[C@@H](CCCN=C(N)N)C(=O)N[C@@H](CCCCN)C(=O)N[C@@H](CCCCN)C(N)=O` [SGKLCCRRKK], for which the MIC in experiment [3] and in experiment [2] was over 100 µM in each case.

Regarding `CC(C)C[C@H](NC(=O)[C@H](Cc1ccccc1)NC(=O)[C@H](C)NC(=O)[C@H](Cc1c[nH]c2ccccc12)NC(=O)[C@H](Cc1c[nH]c2ccccc12)NC(=O)[C@H](Cc1c[nH]c2ccccc12)NC(=O)[C@H](C)NC(=O)[C@H](Cc1ccccc1)NC(=O)[C@H](CCCCN)NC(=O)[C@H](CCCCN)NC(=O)[C@@H](N)C(C)C)C(=O)N[C@@H](CCCCN)C(=O)N[C@@H](CCCCN)C(N)=O` [VKKFAWWWAFLKK], the MIC in experiment [1] came out at 2 µM (≈ 3.47 µg/mL).

`CC(C)C[C@H](NC(=O)[C@H](Cc1ccccc1)NC(=O)[C@@H]1CCCN1C(=O)[C@H](Cc1ccc(O)cc1)NC(=O)[C@H](Cc1ccc(O)cc1)NC(=O)[C@H](Cc1ccc(O)cc1)NC(=O)[C@@H]1CCCN1C(=O)[C@H](Cc1ccccc1)NC(=O)[C@H](CCCN=C(N)N)NC(=O)[C@H](CCCN=C(N)N)NC(=O)[C@@H](N)C(C)C)C(=O)N[C@@H](CCCN=C(N)N)C(=O)N[C@@H](CCCN=C(N)N)C(N)=O` [VRRFPYYYPFLRR]: the MIC turned out to be 22.6 µM (≈ 41.5 µg/mL) in experiment [1], 27.3 µM (≈ 50 µg/mL) with Escherichia coli and 12.2 µM (≈ 22.3 µg/mL) against Staphylococcus aureus.
